# Like-named read-outs stand apart in the source and are kept apart here. Marks after values point to notes of the source that are not given here.
# Columns and labels:
# Phytophthora infestans = assay type: in vivo; settings: tomato plants, preventive spray, 500 ppm active ingredient, evaluated 5 days after inoculation
# [1] = logP by HPLC on reversed phase columns (EEC directive 79/831 Annex V.A8); settings: for chromatographic logP: pH 2.7; for LogP: method [a]: HPLC/LC-MS at pH 2.7, 0.1% formic acid in water / acetonitrile gradient, Table 1
# Method: (§2) Calibration was done with not branched alkan2-ones (with 3 to 16 carbon atoms) with known log P-values (measurement of log P values using retention times with linear interpolation between successive alkanones). lambda-maX-values were determined using UV-spectra from 200 nm to 400 nm and the peak values of the chromatographic signals.
# [2] = pH 2.7
# Method: as §2
# Pyrenophora teres = assay: In vivo preventive test on Pyrenophora teres (net blotch on barley); settings: barley plants, preventive spray, 500 ppm active ingredient, evaluated 14 days after inoculation
# Method: (§1) The tested active ingredients are prepared by homogenization in a mixture of acetone/Dimethyl sulfoxide/Tween®, and then diluted with water to obtain the desired active material concentration.
# The young plants of barley are treated by spraying the active ingredient prepared as described above. Control plants are treated only with an aqueous solution of acetone/Dimethyl sulfoxide/Tween®.
# After 24 hours, the plants are contaminated by spraying the leaves with an aqueous suspension of Pyrenophora teres spores. The contaminated barley plants are incubated for 48 hours at 20° C. and at 100% relative humidity and then for 12 days at 20° C. and at 70-80% relative humidity.
# The test is evaluated 14 days after the inoculation. 0% means an efficacy which corresponds to that of the control plants while an efficacy of 100% means that no disease is observed.
# Botrytis cinerea = assay: In vivo preventive test on Botrytis cinerea (grey mould); settings: gherkin plants, preventive spray, 500 ppm active ingredient, evaluated 4 to 5 days after inoculation
# Method: as §1
# The young plants of gherkin are treated by spraying the active ingredient prepared as described above. Control plants are treated only with an aqueous solution of acetone/Dimethyl sulfoxide/Tween®.
# After 24 hours, the plants are contaminated by spraying the leaves with an aqueous suspension of Botrytis cinerea spores. The contaminated gherkin plants are incubated for 4 to 5 days at 17° C. and at 90% relative humidity.
# The test is evaluated 4 to 5 days after the inoculation. 0% means an efficacy which corresponds to that of the control plants while an efficacy of 100% means that no disease is observed.
# Plasmopara viticola = assay: Plasmopara test (grapevines) / preventive; assay type: in vivo; settings: grapevine young plants, preventive spray, 10 ppm active ingredient, evaluated 6 days after inoculation
# Method: To produce a suitable preparation of active compound, 1 part by weight of active compound is mixed with the stated amounts of solvent and emulsifier, and the concentrate is diluted with water to the desired concentration.
# To test for preventive activity, young plants are sprayed with the preparation of active compound at the stated rate of application. After the spray coating has dried on, the plants are inoculated with an aqueous spore suspension of Plasmopara viticola and then remain for 1 day in an incubation cabinet at approximately 20° C. and a relative atmospheric humidity of 100%. The plant is subsequently placed for 4 days in a greenhouse at approximately 21° C. and a relative atmospheric humidity of approximately 90%. The plants are then misted and placed for 1 day in an incubation cabinet.
# The test is evaluated 6 days after the inoculation. 0% means an efficacy which corresponds to that of the untreated control, while an efficacy of 100% means that no disease is observed.
Compound,% efficacy (Phytophthora infestans),LogP [1],further results
"Cn1c(/C(=N\OCc2cccc(NC(=O)OC(C)(C)C)n2)c2ccccc2)noc1=S [Example 1, tert-butyl {6-[({[(Z)-(4-methyl-5-thioxo-4,5-dihydro-1,2,4-oxadiazol-3-yl)(phenyl)methylene]amino}oxy)methyl]pyridin-2-yl}carbamate]",97%,,chromatographic logP [1]: 4.66
"C#CCCOC(=O)Nc1cccc(CO/N=C(/c2ccccc2)c2noc(=S)n2C)n1 [Example 2, but-3-yn-1-yl {6-[({[(Z)-(4-methyl-5-thioxo-4,5-dihydro-1,2,4-oxadiazol-3-yl)(phenyl)methylene]amino}oxy)methyl]pyridin-2-yl}carbamate]",93%,,chromatographic logP [1]: 3.87
C#CCC(C)(C)OC(=O)Nc1cccc(CON=C(c2ccccc2)c2noc(=S)n2C)n1 [Example 3],93%,4.54^[a],
Cn1c(C(=NOCc2cccc(NC(=O)OCc3ccccc3)n2)c2ccccc2)noc1=S [Example 4],,4.58^[a],
CCCCCOC(=O)Nc1cccc(CON=C(c2ccccc2)c2noc(=S)n2C)n1 [Example 5],80%,5.05^[a],
CCCCC(=O)Nc1cccc(CON=C(c2ccccc2)c2noc(=S)n2C)n1 [Example 6],99%,,LogP [2]: 4.18^[a]; % efficacy (Pyrenophora teres): 96%
"Cn1c(/C(=N\OCc2cccc(N)n2)c2ccccc2)noc1=S [Example 7, 3-[(Z)-{[(6-aminopyridin-2-yl)methoxy]imino}(phenyl)methyl]-4-methyl-1,2,4-oxadiazole-5(4H)-thione]",99%,,chromatographic logP [1]: 1.59
Cn1oc(=S)nc1C(=NOCc1csc(NC(=O)OCCc2ccccc2)n1)c1ccccc1 [Example 8],79%,3.76^[a],
C#CCCOC(=O)Nc1nc(CON=C(c2ccccc2)c2nc(=S)on2C)cs1 [Example 9],89%,2.96^[a],
Cn1oc(=S)nc1C(=NOCc1csc(NC(=O)COc2ccccc2)n1)c1ccccc1 [Example 10],84%,,LogP [2]: 3.31^[a]; % efficacy (Botrytis cinerea): 74%
Cn1oc(=S)nc1C(=NOCc1csc(NC(=O)C2COc3ccccc3O2)n1)c1ccccc1 (centres unmarked) [Example 11],76%,,LogP [2]: 3.50^[a]; % efficacy (Plasmopara viticola): 82%
Cn1oc(=S)nc1C(=NOCc1csc(NC(=O)OC2CC3CCC2C3)n1)c1ccccc1 (centres unmarked) [Example 12],,4.06^[a],
CCCCCCCC(=O)Nc1nc(CON=C(c2ccccc2)c2nc(=S)on2C)cs1 [Example 13],98%,4.39^[a],
Cn1oc(=S)nc1C(=NOCc1csc(NC(=O)C2(C)CC2)n1)c1ccccc1 [Example 15],99%,,LogP [2]: 3.11^[a]; % efficacy (Botrytis cinerea): 95%
CCCCCC(=O)Nc1nc(CON=C(c2ccccc2)c2nc(=S)on2C)cs1 [Example 16],76%,,LogP [2]: 3.63^[a]; % efficacy (Botrytis cinerea): 95%
C#CCCCCOC(=O)Nc1nc(CON=C(c2ccccc2)c2nc(=S)on2C)cs1 [Example 17],100%,3.44^[a],

Compound,% efficacy (Phytophthora infestans),LogP [1],further results
CCC(C)SC(=O)Nc1nc(CON=C(c2ccccc2)c2nc(=S)on2C)cs1 (centres unmarked) [Example 18],83%,3.90^[a],
C#CCCOC(=O)Nc1cccc(CON=C(c2ccccc2)c2nc(=NC#N)on2C)n1 [Example 19],,3.13^[a],
"Cn1oc(=S)nc1/C(=N\OCc1csc(N)n1)c1ccccc1 [Example 20, 3-[(Z)-{[(2-amino-1,3-thiazol-4-yl)methoxy]imino}(phenyl)methyl]-2-methyl-1,2,4-oxadiazole-5(2H)-thione]",,,chromatographic logP [1]: 1.53
Cn1oc(=S)nc1C(=NOCc1csc(NC(=O)C(C)(C)C)n1)c1ccccc1 [Example 21],,3.31^[a],
C#CCC(C)OC(=O)Nc1nc(CON=C(c2ccccc2)c2nc(=S)on2C)cs1 (centres unmarked) [Example 22],74%,3.23^[a],
Cn1oc(=S)nc1C(=NOCc1csc(NC(=O)c2ccccc2)n1)c1ccccc1 [Example 23],71%,3.31^[a],% efficacy (Botrytis cinerea): 99%
CCCCCCC(=O)Nc1nc(CON=C(c2ccccc2)c2nc(=S)on2C)cs1 [Example 24],79%,,LogP [2]: 3.99^[a]; % efficacy (Botrytis cinerea): 84%
C#CCCC(C)OC(=O)Nc1nc(CON=C(c2ccccc2)c2nc(=S)on2C)cs1 (centres unmarked) [Example 25],,3.41^[a],
C#CCCOC(=O)Nc1cccc(CON=C(c2ccccc2)c2nc(=S)on2C)n1 [Example 26],,3.15^[a],
Cn1oc(=S)nc1C(=NOCc1csc(NC(=O)OCCOc2ccccc2)n1)c1ccccc1 [Example 27],90%,4.18^[a],
CN1C(C(=NOCc2cccc(NC(=O)OC(C)(C)C)n2)c2ccccc2)=NOS1=O (centres unmarked) [Example 28],,4.18^[a],
C#CCCCOC(=O)Nc1nc(CON=C(c2ccccc2)c2nc(=S)on2C)cs1 [Example 29],,,LogP [2]: 3.19^[a]; % efficacy (Botrytis cinerea): 71%
"Cn1oc(=S)nc1/C(=N\OCc1csc(NC(=O)OC(C)(C)C)n1)c1ccccc1 [Example 30, tert-butyl {4-[({[(Z)-(2-methyl-5-thioxo-2,5-dihydro-1,2,4-oxadiazol-3-yl)(phenyl)methylene]amino}oxy)methyl]-1,3-thiazol-2-yl}carbamate]",100%,,chromatographic logP [1]: 3.53; % efficacy (Pyrenophora teres): 86%; % efficacy (Plasmopara viticola): 79%
CC(COc1ccccc1)OC(=O)Nc1nc(CON=C(c2ccccc2)c2nc(=S)on2C)cs1 (centres unmarked) [Example 31],,4.44^[a],
CCCCC(CC)COC(=O)Nc1nc(CON=C(c2ccccc2)c2nc(=S)on2C)cs1 (centres unmarked) [Example 32],,5.55^[a],
"CNC(=N\O)/C(=N\OCc1cccc(NC(=O)OC(C)(C)C)n1)c1ccccc1 [VIII-1, tert-butyl {6-[({[(1Z,2Z)-2-(hydroxyimino)-2-(methylamino)-1-phenylethylidene]amino}oxy)methyl]pyridin-2-yl}carbamate]",,,chromatographic logP [1]: 2.6

# Reference: US20160016944A1, “FUNGICIDAL 3--HETEROCYCLE DERIVATIVES” (priority 2013, published 2016)
